In PMC6270994, “The Hydractinia echinata Test-System. III: Structure-Toxicity Relationship Study of Some Azo-, Azo-Anilide, and Diazonium Salt Derivatives” (Molecules, 2014):
Counter-ions that a name gives are not always drawn.

tested on: Hydractinia echinata; assay: Hydractinia echinata test system (HeTS): reduction of Cs+-induced metamorphosis of larvae; assay type: in vivo; conditions: MRC50 in mol/L = concentration for 50% decrease of metamorphosis vs control; larvae exposed 3 h with Cs+, read after 24 h

Molecule | M: experimental Mlog(1/MRC50)
O=C(Nc1ccc2c(O)c(N=Nc3ccc(N=Nc4ccc(S(=O)(=O)[O-])cc4)cc3S(=O)(=O)[O-])c(S(=O)(=O)[O-])cc2c1)Nc1ccc2c(O)c(N=Nc3ccc(N=Nc4ccc(S(=O)(=O)[O-])cc4)cc3S(=O)(=O)[O-])c(S(=O)(=O)[O-])cc2c1.[Na+].[Na+].[Na+].[Na+].[Na+].[Na+] [Compound 132, Direct Red 80 (Saturn Rot F3B)] | 3.80
COc1cc(NC(=O)c2ccccc2)c(OC)cc1[N+]#N [Compound 135, Fast Blue RR Salt] | 4.09
CCOc1cc(NC(=O)c2ccccc2)c(OCC)cc1[N+]#N.[Cl-] [Compound 136, Fast Blue BB Salt] | 4.17
Bordo Direct AN [Compound 81] | 3.86
Direct Black 32 [Compound 77] | 3.89
Fast Red B Salt [Compound 137] | 5.25

same assay, conditions: in vivo

Molecule | F(1), F(2),... individual log(1/MRC50) toxicity value
COc1ccc(N)cc1 [p-Methoxy-aniline] | 3.32
Nc1ccc([N+](=O)[O-])cc1 [p-NA, p-nitroaniline] | 2.85
